This assay concerns the target T1, Glutathione reductase, mitochondrial (Homo sapiens, UniProt P00390).
T1 sequence (P00390 whole entry): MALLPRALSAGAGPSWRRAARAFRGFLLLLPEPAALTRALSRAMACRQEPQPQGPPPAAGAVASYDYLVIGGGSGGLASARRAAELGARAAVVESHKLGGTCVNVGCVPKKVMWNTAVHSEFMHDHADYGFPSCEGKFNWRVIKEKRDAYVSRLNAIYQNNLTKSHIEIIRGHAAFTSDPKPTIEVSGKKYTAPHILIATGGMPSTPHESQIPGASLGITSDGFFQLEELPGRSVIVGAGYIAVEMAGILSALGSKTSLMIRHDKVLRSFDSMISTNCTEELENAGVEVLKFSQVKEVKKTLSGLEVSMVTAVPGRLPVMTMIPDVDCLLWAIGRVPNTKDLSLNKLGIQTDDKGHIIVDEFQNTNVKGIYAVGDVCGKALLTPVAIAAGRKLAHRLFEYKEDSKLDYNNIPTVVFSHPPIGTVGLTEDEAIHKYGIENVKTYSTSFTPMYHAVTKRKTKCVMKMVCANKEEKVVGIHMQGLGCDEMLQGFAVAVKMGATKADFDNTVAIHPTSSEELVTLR
The assay can be described thus: Inhibitory activity against human glutathione reductase in presence of 100 uM GSSG.

Structures are written as SMILES.

Broadly, the IC50 is the concentration that gives 50% inhibition. As for `O=c1nc2n(-c3cc(Cl)cc(Cl)c3)c3ccccc3nc-2c(=O)[nH]1`, the IC50 was less than 1 µM.

For the compound `Cn1c(=O)nc2n(-c3cccc(C(F)(F)F)c3)c3ccccc3nc-2c1=O`, the IC50 worked out at 1 µM.

For `Cn1c(=O)nc2n(-c3cccc4ccccc34)c3ccccc3nc-2c1=O`, the half-maximal inhibitory concentration (IC50) came out at 2 µM.

On to `Cn1c(=O)nc2n(-c3cc(Cl)cc(Cl)c3)c3ccccc3nc-2c1=O`, for which the IC50 is less than 1 µM.

Turning to `Cn1c(=O)nc2n(-c3cc[n+](C)cc3)c3ccccc3nc-2c1=O`, the 50% inhibitory concentration (IC50) was determined as 40 µM.

Turning to `O=C(O)Cn1c(=O)nc2n(-c3ccc(Cl)cc3)c3ccccc3nc-2c1=O`, the IC50 came out at 12 µM.

In the case of `O=C(O)Cn1c(=O)nc2n(-c3cc(C(F)(F)F)cc(C(F)(F)F)c3)c3ccccc3nc-2c1=O`, the IC50 came to 25 µM.

On to `Cn1c(=O)nc2n(-c3ccncc3)c3ccccc3nc-2c1=O`, for which the IC50 was found to be 3 µM.

As for `O=c1nc2n(-c3c(F)c(F)c(F)c(F)c3F)c3ccccc3nc-2c(=O)[nH]1`, the IC50 was 3.5 µM.

With `CCOC(=O)Cn1c(=O)nc2n(-c3cc(C(F)(F)F)cc(C(F)(F)F)c3)c3ccccc3nc-2c1=O`, the 50% inhibitory concentration (IC50) was determined as 100 µM.

On to `CCOC(=O)Cn1c(=O)nc2n(-c3cccc(C(F)(F)F)c3)c3ccccc3nc-2c1=O`, for which the 50% inhibitory concentration (IC50) stood at 8 µM.

As to `Cn1c(=O)nc2n(-c3cccc4cc5ccccc5cc34)c3ccccc3nc-2c1=O`, the IC50 came to 4 µM.

With `Cn1c(=O)nc2n(-c3ccc(Cl)cc3)c3cc(N=[N+]=[N-])ccc3nc-2c1=O`, the IC50 was found to be 2.5 µM.

For the compound `Cn1c(=O)nc2n(-c3ccccc3)c3ccccc3nc-2c1=O`, the IC50 was 2 µM.

Consider `Cn1c(=O)nc2n(-c3ccc(Cl)cc3)c3cc(F)ccc3nc-2c1=O`, for which the IC50 was 1 µM.

`O=c1nc2n(-c3ccc(Cl)cc3)c3ccccc3nc-2c(=O)[nH]1`: the IC50 was less than 1 µM.

`O=c1nc2n(-c3cccc(C(F)(F)F)c3)c3ccccc3nc-2c(=O)[nH]1`: the concentration for half-maximal inhibition (IC50) amounted to 1 µM.

In the case of `Cn1c(=O)nc2n(-c3cc(C(F)(F)F)cc(C(F)(F)F)c3)c3ccccc3nc-2c1=O`, the IC50 was determined as 5 µM.

`O=c1nc2n(-c3cc(C(F)(F)F)cc(C(F)(F)F)c3)c3ccccc3nc-2c(=O)[nH]1`: the IC50 stood at 3.5 µM.

For `Cn1c(=O)nc2n(-c3cccnc3)c3ccccc3nc-2c1=O`, the IC50 came out at 8 µM.

For the compound `Cn1c(=O)nc2n(-c3ccc(Cl)cc3)c3ccccc3nc-2c1=O`, the IC50 is less than 1 µM.

With `O=C(O)Cn1c(=O)nc2n(-c3cccc(C(F)(F)F)c3)c3ccccc3nc-2c1=O`, the IC50 was found to be 20 µM.

Turning to `O=C(O)Cn1c(=O)nc2n(-c3cc(Cl)cc(Cl)c3)c3ccccc3nc-2c1=O`, the IC50 stood at 14 µM.

In the case of `CCOC(=O)Cn1c(=O)nc2n(-c3cc(Cl)cc(Cl)c3)c3ccccc3nc-2c1=O`, the IC50 worked out at 7 µM.

Consider `CCOC(=O)Cn1c(=O)nc2n(-c3ccc(Cl)cc3)c3ccccc3nc-2c1=O`, for which the IC50 is 18 µM.

`Cn1c(=O)nc2n(-c3c(F)c(F)c(F)c(F)c3F)c3ccccc3nc-2c1=O`: the concentration for half-maximal inhibition (IC50) was less than 1 µM.

The record behind these values is ChEMBL document CHEMBL1129061, “Inhibition of human glutathione reductase by 10-arylisoalloxazines: crystalline, kinetic, and electrochemical studies” (J Med Chem, 1996).
